This experiment concerns the target Bcl-2-like protein 1 (Homo sapiens) (UniProt Q07817). Briefly: Bim-Bcl-XL interaction inhibitors, potency, dose response, biochemical, multiplexed, bead flow cytometry, human Bcl-XL (AID 1322). On inhibition: test concentration not given here. The settings on record: Bead-based flow cytometry, Bim peptide-Bcl-XL binding, MCF; for inhibition: active compounds read high. In general terms: In flow cytometry, cells or beads pass a laser one at a time.

Molecules are shown by their SMILES. The source made the active and inactive calls. How the calls were made is not given here.

Sequence of Bcl-2-like protein 1 (Homo sapiens) (Q07817 whole entry, looked up): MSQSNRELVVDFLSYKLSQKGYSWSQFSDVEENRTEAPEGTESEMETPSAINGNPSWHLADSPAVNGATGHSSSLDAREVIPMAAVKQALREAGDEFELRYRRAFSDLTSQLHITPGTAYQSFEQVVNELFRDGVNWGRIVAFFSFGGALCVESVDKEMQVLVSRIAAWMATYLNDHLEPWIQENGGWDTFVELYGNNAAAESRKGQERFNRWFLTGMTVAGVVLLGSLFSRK

For the molecule `O=C(c1cnccn1)N1CCN(c2ccccc2F)CC1`, the inhibition result is “inactive”.

With `COc1cccc(-n2nnnc2SCC(=O)Nc2cccc(NC(C)=O)c2)c1`, the inhibition entry was “inactive”. Still for that read-out and setting: as for `O=[N+]([O-])c1c(NCCO)cc(Sc2nc3ccccc3s2)c2nonc12`, the entry is “inactive”. On the same count and under the same terms, as for `CC(=O)Nc1ccc(-n2cc(-c3ccccc3)[nH]c2=S)cc1`, the entry is “inactive”; as for `CCOc1ccc(C2=Nn3c(nnc3-c3ccco3)SC2)cc1`, “inactive”; as for `N/C(Cc1ccc(Cl)c(Cl)c1)=N\OC(=O)c1cccs1`, “inactive”. On the same count and under the same terms, the value for `O=C(CSc1ccc(-c2ccccc2)nn1)NCc1ccco1` was “inactive”.

As for `CNC(=S)N/N=C/C1=CCC2CC1C2(C)C` (stereo not drawn), the inhibition result was “inactive”. As to `CC1Nc2ccccc2C(=O)N1NS(C)(=O)=O` (stereo not drawn), the inhibition entry is “inactive”.

Turning to `O=C(c1ccccc1NS(=O)(=O)c1ccc(Br)s1)N1CCCC1`, the inhibition entry is “inactive”. On the same count and under the same terms, as for `COc1ccc(NC(=O)Cc2c(F)cccc2Cl)c(OC)c1`, the entry is “inactive”. Still for that read-out and setting: the value for `CC1N(C)c2cccc3cccc(c23)N1C` was “inactive”.

With `Cn1cc(CN2C[C@]3(C)C[C@H]2CC(C)(C)C3)c(-c2ccc3c(c2)OCCO3)n1`, the result was inactive. Turning to `Cc1ccc(S(=O)(=O)N2CCCCC2)cc1NC(=O)COC(=O)c1ccccc1F`, the inhibition entry was “inactive”.

Take `NC(=O)c1c(NC(=O)C2CCCO2)sc2c1CCCCC2` (stereo not drawn): the inhibition result was “inactive”. `O=C(O)c1ccccc1NSc1ccccc1[N+](=O)[O-]`: the outcome was inactive.

On to `CCN1CCN(c2cc(C)c3cc(NC(=S)N4CCCCC4)ccc3n2)CC1`, for which the inhibition result was “inactive”.

Consider `COc1ccc(-n2cc(-c3ccc(OC)c(OC)c3)[nH]c2=S)cc1`, for which the inhibition entry was “inactive”. For `Cc1cccn2c(=O)c3cc(C(N)=S)c(=N)n(CCCN4CCOCC4)c3nc12`, the inhibition entry was “inactive”. The same measure, in the same setting: the value for `COc1cc(/C=C2\S/C(=N/S(=O)(=O)c3ccccc3)NC2=O)c([N+](=O)[O-])cc1OC` was “inactive”; that for `Cc1cccc(-c2nnc3n2N=C(c2ccccc2)CS3)c1` was “inactive”; that for `CNC(=S)N(Cc1cccs1)Cc1cc2ccc(OC)cc2[nH]c1=O` was “inactive”. The same measure, in the same setting: the value for `CN1C(=O)/C(=C/c2ccc(-c3ccccc3[N+](=O)[O-])o2)SC1=Nc1ccc(Cl)c(C(=O)O)c1` was “inactive”; that for `COc1cc(NC(=S)NC(=O)c2cc(C)cc(C)c2)ccc1NC(=O)c1cccs1` was “inactive”; that for `CCN1CCN(c2ccc(NC(=O)c3cccc4ncccc34)cc2)CC1` was “inactive”. Still for that read-out and setting: as for `COc1ccc(C(=O)Nc2ccc(C(=O)OCC(=O)c3cccc4ccccc34)cc2)cc1`, the entry is “inactive”; as for `O=C(Nc1ccc(Cl)cn1)Nc1ccccc1F`, “inactive”. For the molecule `O=C(COC(=O)c1ccccn1)NC1CCCCC1`, the inhibition entry was “inactive”. The same measure, in the same setting: as for `CCCCOC(=O)c1nc(Cl)c(Cl)c(N)c1Cl`, the entry is “inactive”. Same read-out and setting: the value for `Cc1ccc(S(=O)(=O)NC(=O)COc2ccccc2C)cc1` was “inactive”; that for `CCCCC(=O)Nc1ccc(C(=O)N2CCC(C(=O)OCC)CC2)cc1` was “inactive”. Turning to `CC(C)CCN1CCN(Cc2cccc3cccnc23)CC1CCO` (stereo not drawn), the result was inactive. Take `O=C(c1cc(=O)c2ccccc2o1)N1CCN(c2ccccc2F)CC1`: the inhibition entry is “inactive”. For `CCCCC(C(=O)OCC)C(N)Cc1ccc(F)cc1` (stereo not drawn), the result was inactive. The same measure, in the same setting: as for `Cn1c(N)c(C(=O)COC(=O)c2cncc(Br)c2)c(=O)n(C)c1=O`, the entry is “inactive”.

Turning to `Cc1ccc(/C=C2/NC(=O)N(Cc3ccc(Br)cc3)C2=O)o1`, the inhibition entry is “inactive”. The same measure, in the same setting: as for `Cc1cccc(C(=O)N2CCC(c3nc(-c4ccc(S(=O)(=O)N5CCOCC5)cc4)no3)CC2)c1`, the entry is “inactive”.

`CN(C(=O)NC1CCCCC1)c1ccccc1`: the inhibition entry is “inactive”.

Regarding `COC(=O)c1sc2nc[nH]c(=O)c2c1C`, the inhibition entry was “inactive”. In the case of `CCCc1nnc2n1N=C(c1ccc(-c3cc(Cl)ccc3Cl)o1)CS2`, the inhibition entry was “inactive”.

Take `COc1ccc(N2CC(C(=O)Nc3nnc(SCC(=O)c4ccccc4)s3)CC2=O)cc1` (stereo not drawn): the inhibition result is “inactive”. Same read-out and setting: the value for `Cc1ccc2nc3c(cc(C(N)=S)c(=N)n3CCCOC(C)C)c(=O)n2c1` was “inactive”; that for `Cc1sc(NC(=O)Cn2cnnn2)nc1-c1ccc(Cl)cc1` was “inactive”.

Turning to `O=C(NC1=C(Nc2ccc(Cl)cc2)C(=O)c2ccccc2C1=O)c1ccccc1`, the inhibition entry is “inactive”. Turning to `Cn1c(=O)c(C(=O)COC(=O)c2cc(-c3ccco3)nc3ccccc23)c(N)n(CC2CC2)c1=O`, the inhibition entry is “inactive”. As for `CCc1ccc(NC(=O)Cc2ccc(OC)cc2)cc1`, the result was inactive. The same measure, in the same setting: the value for `Cc1ccc(C(NC(=O)C(C)C)c2cc([N+](=O)[O-])c3cccnc3c2O)cc1` (stereo not drawn) was “inactive”.

In the case of `CN(CCCOc1ccccc1Br)Cc1ccccc1`, the inhibition result was “inactive”. Still for that read-out and setting: the value for `COP(=O)(CC(=O)O)c1ccccc1` (stereo not drawn) was “inactive”. Same read-out and setting: the value for `Cc1nnc(Sc2cc(NCCO)c([N+](=O)[O-])c3nonc23)s1` was “inactive”.

For `COc1ccccc1-n1c(SCC(=O)N2CCc3ccccc32)nc2c(c1=O)SCC2`, the inhibition result was “inactive”. On the same count and under the same terms, the value for `CCNCc1cc(Br)c(OCC(=O)Nc2ccccc2)c(OC)c1` was “inactive”; that for `COc1ccc(CC(=O)Nc2ccc3nc(C)sc3c2)cc1OC` was “inactive”.

Regarding `Cc1ccc(N=c2ssnc2Cl)cc1`, the inhibition entry is “inactive”. Consider `O=C1Nc2ccc([N+](=O)[O-])cc2OC1CCN1CCN(Cc2ccc3c(c2)OCO3)CC1` (stereo not drawn), for which the result was inactive. For `O=S1(=O)N=C(N(CCO)/N=C/c2ccccc2)c2ccccc21`, the inhibition entry is “inactive”.

For the molecule `O=c1c2c(n3nnnc3n1Cc1ccccc1)-c1ccccc1CC21CCCC1`, the inhibition entry is “inactive”. Regarding `Cc1ccc(C)n1-c1cccc(C(=O)O)c1`, the inhibition entry is “inactive”.

As for `CCOc1ccc(-n2cc(-c3ccc(OC)c(OC)c3)[nH]c2=S)cc1`, the outcome was inactive. Consider `Cc1ccc(C(=O)C(C(=O)/C=C/c2ccccc2)=C2SCCCS2)cc1`, for which the inhibition result is “inactive”.

For the molecule `Cc1cc(C)c2nc3nc(C)cc(C)c3c(N)c2c1`, the inhibition result is “inactive”. The same measure, in the same setting: the value for `Cc1ccc(-c2ccc(CCC(=O)O)n2NC(=O)c2cccs2)cc1` was “inactive”.

For the molecule `CN(C)CCNC(=O)C(=O)C1C(=O)Nc2ccccc21` (stereo not drawn), the outcome was inactive. On to `Cc1c(Cc2ccccc2)sc(N)c1C(N)=O`, for which the inhibition entry was “inactive”.

Take `Cc1ccc(NC2=C(NC(=O)c3ccccc3)C(=O)c3ccccc3C2=O)cc1Cl`: the inhibition result is “inactive”.

As to `COc1ccccc1-n1c(-c2ccc(Cl)cc2)c[nH]c1=S`, the inhibition entry was “inactive”.

Turning to `CN1CCS/C1=C/C=C1/SC(=S)N(Cc2ccccc2)C1=O`, the inhibition result is “inactive”. Turning to `Cc1cc(C)cc(-n2c(C)nc3cc(C(=O)O)ccc32)c1`, the inhibition result is “inactive”. For `Cc1nn(-c2ccc(Cl)c(Cl)c2)c(C)c1C(=O)O`, the result was inactive. The same measure, in the same setting: the value for `CNCc1ccccc1Sc1cc(O)ccc1O` was “inactive”.

Take `CCN1CCN(c2cc(C)c3cc(NC(=S)N4CCN(c5ccccc5)CC4)ccc3n2)CC1`: the inhibition result is “inactive”.

Take `COc1ccc2nc(-c3ccco3)c(-c3ccco3)nc2c1`: the inhibition entry is “inactive”. Regarding `Cc1cc(N/C(=N/S(=O)(=O)c2cc(F)ccc2F)c2ccccc2)n(-c2ccccc2)n1`, the outcome was inactive.

On to `COc1c(F)c(F)c(C(=O)Nc2ccccc2N2CCN(C(=O)C(C)C)CC2)c(F)c1F`, for which the inhibition entry was “inactive”. For `CCNC(=S)Nc1ccc(OCC)cc1`, the inhibition entry was “inactive”.

On to `O=C(NC1=C(Nc2ccc(F)cc2)C(=O)c2ccccc2C1=O)c1ccc(Cl)cc1`, for which the inhibition entry was “inactive”.

As to `O=C(O)CC1S/C(=N/N=C/C=C/c2ccccc2[N+](=O)[O-])NC1=O` (stereo not drawn), the outcome was inactive. For `COc1ccc2nc(C)cc(SCC(=O)N/N=C/c3ccc(O)c(O)c3)c2c1`, the inhibition entry is “inactive”. The same measure, in the same setting: the value for `CN(C)c1ccc(C=C2C(=O)NC(=O)NC2=O)cc1[N+](=O)[O-]` was “inactive”.

Take `CNc1ccc(Br)cc(C(=O)/C=C/c2ccc(OC)cc2OC)c1=O`: the inhibition result is “inactive”. Still for that read-out and setting: the value for `CC(C)COC(=O)/C(C#N)=C/c1cn(Cc2ccccc2)c2ccccc12` was “inactive”. Regarding `O=C(Cn1c(-c2ccccc2)noc1=O)N1CCC(Cc2ccccc2)CC1`, the result was inactive.

Turning to `CCOC(=O)/C(=C\c1cccc(O)c1)c1nc2sc(C)c(C)c2c(=O)[nH]1`, the inhibition result was “inactive”. Same read-out and setting: as for `CCN1CCN(CC(=O)c2c[nH]c3ccc(C)cc23)CC1`, the entry is “inactive”; as for `O=C(O)c1ccc(NS(=O)(=O)c2ccc3c(c2)C(=O)c2ccccc2C3=O)cc1`, “inactive”.

With `CCOC(=O)c1sc(NC(=O)c2ccncc2)c(C#N)c1C`, the inhibition result is “inactive”. In the case of `COc1ccccc1NC(=O)CSc1ncn(-c2ccccc2)n1`, the inhibition entry was “inactive”. In the case of `Cc1cccc(/C=N/N(CCO)C2=NS(=O)(=O)c3ccccc32)c1`, the inhibition result was “inactive”. On the same count and under the same terms, as for `COc1ccc(CCNC(=O)c2cc(-c3ccccn3)nc3c(Cl)cccc23)cc1OC`, the entry is “inactive”; as for `N#CC(C#N)=C1C=CC=CN1/C(=C\c1ccco1)C(=O)c1ccccc1`, “inactive”; as for `COc1ccc(S(=O)(=O)NCCSc2ccccc2)cc1OC`, “inactive”. `c1ccc(-c2nnc(OCCN3CCOCC3)c3ccccc23)cc1`: the inhibition entry was “inactive”. Same read-out and setting: the value for `COc1ccc(OC)c(NC(=O)COC(=O)c2cc3c(s2)CCC3)c1` was “inactive”.

These data come from PubChem BioAssay AID1322 (NMMLSC, 2008).
